Measured values as given in article PMC10382351, “In vivo evaluation of a novel ^18F-labeled PET radioligand for translocator protein 18 kDa (TSPO) in monkey brain” (European Journal of Nuclear Medicine and Molecular Imaging, 2023).
“And” between values parts separate entries of the source, which are not always exact repeats. Equal values may be shown once. “Also recorded” adds a separate entry of the source.

Tested on: 18 kDa translocator protein (TSPO)
Experiment: PET imaging of [^18F]SF51 in rhesus monkey brain with kinetic analysis (2TCM, Logan plot, Lassen plot)
Assay type: in vivo
Conditions: for Estimated K1 / VT/fP using Logan plot: Blocked (PK11195); for Estimated K1: three rhesus monkeys; for VT/fP using Logan plot: n=3
Description: Electrocardiogram, body temperature, heart rate, and respiratory rate measures were monitored throughout the scan.
Brain PET imaging was performed using a microPET Focus 220 camera (Siemens Medical Solution; Knoxville, TN). […] For baseline experiments, 20 mL of a vehicle containing 20% (2-hydroxypropyl)-β-cyclodextrin and two equivalents of HCl were injected intravenously 10 min before radioligand administration. For the blocked experiment, PK11195 was dissolved in vehicle and then injected intravenously (5 mg/kg) 10 min before radioligand injection for all three monkeys. One of the three monkeys underwent an additional blocked scan with 5 mg/kg of PBR28, performed using a MultiScan™ LFER 150 PET/CT (Mediso USA, LLC; Arlington, VA). The interval between baseline and blocked imaging sessions was at least three weeks in order to allow the monkey to recover from arterial blood sampling. Focus 220 PET images were histogrammed into 30 time frames (6 × 30, 3 × 60, 2 × 120, 4 × 300, and 15 × 600 s) and reconstructed using Fourier rebinning plus a two-dimensional filtered back-projection with scatter and attenuation correction. MultiScan LFER PET images were reconstructed with 3D-OSEM with two iterations and nine subsets and were corrected for scatter and attenuation.
PET images were co-registered to a standardized monkey MRI template using PMOD software (PMOD version 4.1, PMOD Technologies Ltd.; Zurich, Switzerland). Thirty-three predefined regions of interest (ROIs) from a monkey brain template were applied to the co-registered PET images to obtain regional time-activity curves (Supplementary Table S2). Brain uptake was expressed as standardized uptake value (SUV), which normalizes for injected radioactivity and body weight. Using the brain time-activity curves and the radiometabolite-corrected arterial input function, the total VT was derived from a two-tissue compartment model (2TCM). Receptor occupancy by PK11195 and nondisplaceable distribution volume (VND/fP) of [^18F]SF51 were determined by an axes-transformed Lassen plot, where the y-axis reports the difference in VT between the baseline and the blocked scans, corrected by the respective fp values, and the x-axis reports the values at baseline (VTbase/fPbase).

SMILES: CC[C@@H](C)N(C)C(=O)c1nc(-c2cccc([18F])c2)c2ccccc2n1 [[^18F]SF51]
- VT/fP (Blocked (PK11195 5 mg/kg i.v.), Insula, 2TCM, n = 3): 23 mL·cm^−3
- VT/fP (Blocked (PK11195 5 mg/kg i.v.), Occipital Cortex, 2TCM, n = 3): 23 mL·cm^−3
- VT/fP (Blocked (PK11195 5 mg/kg i.v.), Parietal Cortex, 2TCM, n = 3): 24 mL·cm^−3
- VT/fP (Blocked (PK11195 5 mg/kg i.v.), Striatum, 2TCM, n = 3): 26 mL·cm^−3
- VT/fP (Blocked (PK11195 5 mg/kg i.v.), Temporal Cortex, 2TCM, n = 3): 22 mL·cm^−3
- VT/fP (Blocked (PK11195 5 mg/kg i.v.), Thalamus, 2TCM, n = 3): 27 mL·cm^−3
- VT/fP (Blocked (PK11195 5 mg/kg i.v.), Whole Brain, 2TCM, n = 3): 24 mL·cm^−3
- Estimated K1 (Amygdala, 2TCM): 0.38 mL·cm^-3·min^-1
- VT/fP using Logan plot (Amygdala): 23 mL·cm^-3
- Estimated K1 (Cerebellum, 2TCM): 0.62 mL·cm^-3·min^-1
- VT/fP using Logan plot (Cerebellum): 25 mL·cm^-3
- Estimated K1 (Cingulate Cortex, 2TCM): 0.34 mL·cm^-3·min^-1
- VT/fP using Logan plot (Cingulate Cortex): 24 mL·cm^-3
- Estimated K1 (Frontal Cortex, 2TCM): 0.36 mL·cm^-3·min^-1
- VT/fP using Logan plot (Frontal Cortex): 25 mL·cm^-3
- Estimated K1 (Hippocampus, 2TCM): 0.48 mL·cm^-3·min^-1
- VT/fP using Logan plot (Hippocampus): 21 mL·cm^-3
- Estimated K1 (Insula, 2TCM): 0.37 mL·cm^-3·min^-1
- VT/fP using Logan plot (Insula): 23 mL·cm^-3
- Estimated K1 (Occipital Cortex, 2TCM): 0.40 mL·cm^-3·min^-1
- VT/fP using Logan plot (Occipital Cortex): 22 mL·cm^-3
- Estimated K1 (Parietal Cortex, 2TCM): 0.35 mL·cm^-3·min^-1
- VT/fP using Logan plot (Parietal Cortex): 23 mL·cm^-3
- Estimated K1 (Striatum, 2TCM): 0.65 mL·cm^-3·min^-1
- VT/fP using Logan plot (Striatum): 25 mL·cm^-3
- Estimated K1 (Temporal Cortex, 2TCM): 0.36 mL·cm^-3·min^-1
- VT/fP using Logan plot (Temporal Cortex): 22 mL·cm^-3
- Estimated K1 (Thalamus, 2TCM): 0.50 mL·cm^-3·min^-1
- VT/fP using Logan plot (Thalamus): 26 mL·cm^-3
- Estimated K1 (Whole Brain, 2TCM): 0.41 mL·cm^-3·min^-1
- VT/fP using Logan plot (Whole Brain): 24 mL·cm^-3
- VT/fP (Blocked, PBR28 pre-blockade (5 mg/kg), Amygdala, one monkey): 9 mL·cm^-3
- VT/fP (Blocked, PBR28 pre-blockade (5 mg/kg), Cerebellum, one monkey): 10 mL·cm^-3
- VT/fP (Blocked, PBR28 pre-blockade (5 mg/kg), Cingulate Cortex, one monkey): 10 mL·cm^-3
- VT/fP (Blocked, PBR28 pre-blockade (5 mg/kg), Frontal Cortex, one monkey): 10 mL·cm^-3
- VT/fP (Blocked, PBR28 pre-blockade (5 mg/kg), Hippocampus, one monkey): 9 mL·cm^-3
- VT/fP (Blocked, PBR28 pre-blockade (5 mg/kg), Insula, one monkey): 10 mL·cm^-3
- VT/fP (Blocked, PBR28 pre-blockade (5 mg/kg), Occipital Cortex, one monkey): 10 mL·cm^-3
- VT/fP (Blocked, PBR28 pre-blockade (5 mg/kg), Parietal Cortex, one monkey): 10 mL·cm^-3
- VT/fP (Blocked, PBR28 pre-blockade (5 mg/kg), Striatum, one monkey): 10 mL·cm^-3
- VT/fP (Blocked, PBR28 pre-blockade (5 mg/kg), Temporal Cortex, one monkey): 9 mL·cm^-3
- VT/fP (Blocked, PBR28 pre-blockade (5 mg/kg), Thalamus, one monkey): 12 mL·cm^-3
- VT/fP (Blocked, PBR28 pre-blockade (5 mg/kg), Whole Brain, one monkey): 10 mL·cm^-3
- VND/fP (x-intercept of the regression lines) (Lassen plot, monkey brain, n = 3): 27 ± 11 mL· cm^−3
- Increase of K1 in blocked scans compared to baseline scans (all regions, PK11195): about 30%
- x-intercept of Lassen plot (VND/fP) (mean ± SD, n = 3): 27 ± 11
- Decrease of VT/fP (binding displaced) after blockade with PK11195 (monkey brain, PK11195 5 mg/kg i.v.): ~ 90%
- Mean SUV peak in brain after pre-blockade (monkey brain, after 5 mg/kg PK11195, n = 3): 3.0 ± 0.5 SUV
- Brain activity relative to the peak (monkey brain, baseline, at 180 min): 30 % of the peak
- Brain activity relative to the peak (monkey brain, baseline, by 110 min): 50 % of the peak
- Peak concentration of brain radioactivity (mean SUV peak) (monkey whole brain, baseline, n = 3): 2.0 SUV and 2.0 ± 0.1 SUV
- Uptake in the skull (monkey, baseline, blocked by PK11195 and PBR28): No significant uptake; also recorded: low uptake
- BPND of whole brain (monkey, ratio of specific binding to nondisplaceable uptake, n = 3): 7.6 ± 4.3 and 7.6
